Assay results from patent US5281604A, “Angiotensin II receptor blocking 2,3,6-substituted quinazolinones” (American Cyanamid Company, priority 1993, dated 1994).
Values joined by “and” are separate entries in the source; they are usually repeats but may differ in a detail not shown here. Identical values can stand only once.

Test system: ANGIOTENSIN II (AII) VASOPRESSOR RESPONSE
Test: AII Challenge: blockade of the angiotensin II vasopressor response in conscious spontaneously hypertensive rats
Format: in vivo, rat (Male Okamoto-Aoki SHR)
Source text: By administering a compound of this invention to a rat, and then challenging with angiotensin II, a blockage of the vasopressor response is realized.
Conscious Male Okamoto-Aoki SHR, 16-20 weeks old, weighing approximately 330 g are purchased from Charles River Labs (Wilmington, Mass.). Conscious rats are restrained in a supine position with elastic tape. The area at the base of the tail is locally anesthetized by subcutaneous infiltration with 2% procaine. The ventral caudal artery and vein are isolated, and a cannula made of polyethylene (PE) 10-20 tubing (fused together by heat) is passed into the lower abdominal aorta and vena cava, respectively. The cannula is secured, heparinized (1,000 I.U./ml), sealed and the wound is closed. The animals are placed in plastic restraining cages in an upright position. The cannula is attached to a Statham P23Db pressure transducer, and pulsatile blood pressure is recorded to 10-15 minutes with a Gould Brush recorder. (Chan et al., (Drug Development Res., 18:75-94, 1989).
Angiotensin II (human sequence, Sigma Chem. Co., St. Louis, Mo.) of 0.05 and 0.1 ug/kg i.v. is injected into all rats (predosing response). Then a test compound, vehicle or a known angiotensin II antagonist is administered i.v., i.p. or orally to each set of rats. The two doses of angiotensin II are given to each rat again at 30, 60, 90, 120, 180, 240 and 300 minutes post dosing the compound or vehicle. The vasopressor response of angiotensin II is measured for the increase in systolic blood pressure in mmHg. The percentage of antagonism or blockade of the vasopressor response of angiotensin II by a compound is calculated using the vasopressor response (increase in systolic blood pressure) of angiotensin II of each rat predosing the compound as 100%. A compound is considered active if at 30 mg/kg i.v. it antagonized at least 50% of the response.

[1] = 3 mg/kg i.v., AII 0.05 mcg/kg IV, 30 min post dose
[2] = 3 mg/kg i.v., AII 0.05 mcg/kg IV, 60 min post dose
[3] = 3 mg/kg i.v., AII 0.05 mcg/kg IV, 90 min post dose
[4] = 3 mg/kg i.v., AII 0.05 mcg/kg IV, 120 min post dose
[5] = 3 mg/kg i.v., AII 0.05 mcg/kg IV, 180 min post dose
[6] = 3 mg/kg i.v., AII 0.05 mcg/kg IV, 240 min post dose
[7] = 3 mg/kg i.v., AII 0.05 mcg/kg IV, 300 min post dose
[8] = 3 mg/kg i.v., AII 0.1 mcg/kg IV, 30 min post dose
[9] = 3 mg/kg i.v., AII 0.1 mcg/kg IV, 60 min post dose
[10] = 3 mg/kg i.v., AII 0.1 mcg/kg IV, 90 min post dose
[11] = 3 mg/kg i.v., AII 0.1 mcg/kg IV, 120 min post dose
[12] = 3 mg/kg i.v., AII 0.1 mcg/kg IV, 180 min post dose
[13] = 3 mg/kg i.v., AII 0.1 mcg/kg IV, 240 min post dose
[14] = 3 mg/kg i.v., AII 0.1 mcg/kg IV, 300 min post dose
[15] = 3 mg/kg p.o., AII 0.05 mcg/kg IV, 30 min post dose
[16] = 3 mg/kg p.o., AII 0.05 mcg/kg IV, 60 min post dose
[17] = 3 mg/kg p.o., AII 0.05 mcg/kg IV, 90 min post dose
[18] = 3 mg/kg p.o., AII 0.05 mcg/kg IV, 120 min post dose
[19] = 3 mg/kg p.o., AII 0.05 mcg/kg IV, 180 min post dose
[20] = 3 mg/kg p.o., AII 0.05 mcg/kg IV, 240 min post dose
[21] = 3 mg/kg p.o., AII 0.1 mcg/kg IV, 30 min post dose
[22] = 3 mg/kg p.o., AII 0.1 mcg/kg IV, 60 min post dose
[23] = 3 mg/kg p.o., AII 0.1 mcg/kg IV, 90 min post dose
[24] = 3 mg/kg p.o., AII 0.1 mcg/kg IV, 120 min post dose
[25] = 3 mg/kg p.o., AII 0.1 mcg/kg IV, 180 min post dose
[26] = 3 mg/kg p.o., AII 0.1 mcg/kg IV, 240 min post dose

In the case of `CCCCc1nc2ccc([C@H]3OC[C@H]4[C@@H]3ON3[C@@H]4CCC3(C)C)cc2c(=O)n1Cc1ccc(-c2ccccc2-c2nnn[nH]2)cc1` (relative stereo) [Example 7, (1α, 3aα, 8aβ, 8bα)-2-Butyl-6-(octahydro-6,6-dimethylfuro[3,4-d]pyrrolo[1,2-b]isoxazol-1-yl)-3-[[2'-(1H-tetrazol-5-yl)[1,1'-biphenyl]-4-yl]methyl]-4 (3H)-quinazolinone], the “% Inhibition” value [1] is reported as 91%, the “Average Change” value [1] is reported as 4.5 mmHg and the “Control Before AII (single rat)” value [1] is reported as 245 mmHg and 214 mmHg. For the same compound, the “Response After AII (single rat)” value [1] was 245 mmHg and 223 mmHg, the “Response Change (single rat)” value [1] was 0 mmHg and 9 mmHg and the “% Inhibition” value [2] was 84%. For the same compound, the “Average Change” value [2] was 7.5 mmHg, the “Control Before AII (single rat)” value [2] was 240 mmHg and 225 mmHg and the “Response After AII (single rat)” value [2] was 255 mmHg and 225 mmHg. For the same compound, the “Response Change (single rat)” value [2] was 15 mmHg and 0 mmHg, the “% Inhibition” value [3] was 89% and the “Average Change” value [3] was 5 mmHg. For the same compound, the “Control Before AII (single rat)” value [3] was 235 mmHg, the “Response After AII (single rat)” value [3] was 240 mmHg and the “Response Change (single rat)” value [3] was 5 mmHg. For the same compound, the “% Inhibition” value [4] was 84%, the “Average Change” value [4] was 7.5 mmHg and the “Control Before AII (single rat)” value [4] was 225 mmHg and 220 mmHg. For the same compound, the “Response After AII (single rat)” value [4] was 235 mmHg and 225 mmHg, the “Response Change (single rat)” value [4] was 10 mmHg and 5 mmHg and the “% Inhibition” value [5] was 79%. For the same compound, the “Average Change” value [5] was 10 mmHg, the “Control Before AII (single rat)” value [5] was 225 mmHg and 215 mmHg and the “Response After AII (single rat)” value [5] was 235 mmHg and 225 mmHg. For the same compound, the “Response Change (single rat)” value [5] was 10 mmHg, the “% Inhibition” value [6] was 63% and the “Average Change” value [6] was 17.5 mmHg. For the same compound, the “Control Before AII (single rat)” value [6] was 225 mmHg and 215 mmHg, the “Response After AII (single rat)” value [6] was 235 mmHg and 240 mmHg and the “Response Change (single rat)” value [6] was 10 mmHg and 25 mmHg. For the same compound, the “% Inhibition” value [7] was 74%, the “Average Change” value [7] was 12.5 mmHg and the “Control Before AII (single rat)” value [7] was 235 mmHg and 210 mmHg. The “Response After AII (single rat)” value [7] was 242 mmHg and 228 mmHg, the “Response Change (single rat)” value [7] was 7 mmHg and 18 mmHg and the “% Inhibition” value [8] was 90%. The “Average Change” value [8] was 5 mmHg, the “Control Before AII (single rat)” value [8] was 255 mmHg and 220 mmHg and the “Response After AII (single rat)” value [8] was 260 mmHg and 225 mmHg. For the same compound, the “Response Change (single rat)” value [8] was 5 mmHg, the “% Inhibition” value [9] was 86% and the “Average Change” value [9] was 7.5 mmHg. For the same compound, the “Control Before AII (single rat)” value [9] was 250 mmHg and 215 mmHg, the “Response After AII (single rat)” value [9] was 255 mmHg and 225 mmHg and the “Response Change (single rat)” value [9] was 5 mmHg and 10 mmHg. The “% Inhibition” value [10] was 83%, the “Average Change” value [10] was 9 mmHg and the “Control Before AII (single rat)” value [10] was 235 mmHg and 225 mmHg. The “Response After AII (single rat)” value [10] was 238 mmHg and 240 mmHg, the “Response Change (single rat)” value [10] was 3 mmHg and 15 mmHg and the “% Inhibition” value [11] was 86%. For the same compound, the “Average Change” value [11] was 7.5 mmHg, the “Control Before AII (single rat)” value [11] was 235 mmHg and 215 mmHg and the “Response After AII (single rat)” value [11] was 240 mmHg and 225 mmHg. The “Response Change (single rat)” value [11] was 5 mmHg and 10 mmHg, the “% Inhibition” value [12] was 72% and the “Average Change” value [12] was 14.5 mmHg. The “Control Before AII (single rat)” value [12] was 235 mmHg and 205 mmHg, the “Response After AII (single rat)” value [12] was 245 mmHg and 224 mmHg and the “Response Change (single rat)” value [12] was 10 mmHg and 19 mmHg. For the same compound, the “% Inhibition” value [13] was 81%, the “Average Change” value [13] was 10 mmHg and the “Control Before AII (single rat)” value [13] was 235 mmHg and 225 mmHg. The “Response After AII (single rat)” value [13] was 245 mmHg and 235 mmHg, the “Response Change (single rat)” value [13] was 10 mmHg and the “% Inhibition” value [14] was 57%. The “Average Change” value [14] was 22.5 mmHg, the “Control Before AII (single rat)” value [14] was 230 mmHg and 215 mmHg and the “Response After AII (single rat)” value [14] was 250 mmHg and 240 mmHg. For the same compound, the “Response Change (single rat)” value [14] was 20 mmHg and 25 mmHg, the “% Inhibition” value [15] was 23% and the “Average Change” value [15] was 29 mmHg. For the same compound, the “Control Before AII (single rat)” value [15] was 215 mmHg and 205 mmHg, the “Response After AII (single rat)” value [15] was 248 mmHg and 230 mmHg and the “Response Change (single rat)” value [15] was 33 mmHg and 25 mmHg. For the same compound, the “% Inhibition” value [16] was 27%, the “Average Change” value [16] was 27.5 mmHg and the “Control Before AII (single rat)” value [16] was 230 mmHg and 195 mmHg. The “Response After AII (single rat)” value [16] was 255 mmHg and 225 mmHg, the “Response Change (single rat)” value [16] was 25 mmHg and 30 mmHg and the “% Inhibition” value [17] was 31%. The “Average Change” value [17] was 26 mmHg, the “Control Before AII (single rat)” value [17] was 210 mmHg and 193 mmHg and the “Response After AII (single rat)” value [17] was 245 mmHg and 210 mmHg. For the same compound, the “Response Change (single rat)” value [17] was 35 mmHg and 17 mmHg, the “% Inhibition” value [18] was 27% and the “Average Change” value [18] was 27.5 mmHg. The “Control Before AII (single rat)” value [18] was 210 mmHg and 195 mmHg, the “Response After AII (single rat)” value [18] was 245 mmHg and 215 mmHg and the “Response Change (single rat)” value [18] was 35 mmHg and 20 mmHg. The “% Inhibition” value [19] was 0%, the “Average Change” value [19] was 37.5 mmHg and the “Control Before AII (single rat)” value [19] was 210 mmHg and 190 mmHg. For the same compound, the “Response After AII (single rat)” value [19] was 255 mmHg and 220 mmHg, the “Response Change (single rat)” value [19] was 45 mmHg and 30 mmHg and the “% Inhibition” value [20] was 0%. For the same compound, the “Average Change” value [20] was 37.5 mmHg, the “Control Before AII (single rat)” value [20] was 210 mmHg and 190 mmHg and the “Response After AII (single rat)” value [20] was 260 mmHg and 215 mmHg. For the same compound, the “Response Change (single rat)” value [20] was 50 mmHg and 25 mmHg, the “% Inhibition” value [21] was 6% and the “Average Change” value [21] was 40 mmHg. The “Control Before AII (single rat)” value [21] was 215 mmHg and 200 mmHg, the “Response After AII (single rat)” value [21] was 260 mmHg and 235 mmHg and the “Response Change (single rat)” value [21] was 45 mmHg and 35 mmHg. For the same compound, the “% Inhibition” value [22] was 6%, the “Average Change” value [22] was 40 mmHg and the “Control Before AII (single rat)” value [22] was 215 mmHg and 195 mmHg. For the same compound, the “Response After AII (single rat)” value [22] was 255 mmHg and 235 mmHg, the “Response Change (single rat)” value [22] was 40 mmHg and the “% Inhibition” value [23] was 18%. For the same compound, the “Average Change” value [23] was 35 mmHg, the “Control Before AII (single rat)” value [23] was 215 mmHg and 195 mmHg and the “Response After AII (single rat)” value [23] was 260 mmHg and 220 mmHg. For the same compound, the “Response Change (single rat)” value [23] was 45 mmHg and 25 mmHg, the “% Inhibition” value [24] was 24% and the “Average Change” value [24] was 32.5 mmHg. For the same compound, the “Control Before AII (single rat)” value [24] was 205 mmHg and 190 mmHg, the “Response After AII (single rat)” value [24] was 240 mmHg and 220 mmHg and the “Response Change (single rat)” value [24] was 35 mmHg and 30 mmHg. The “% Inhibition” value [25] was 12%, the “Average Change” value [25] was 37.5 mmHg and the “Control Before AII (single rat)” value [25] was 215 mmHg and 180 mmHg. For the same compound, the “Response After AII (single rat)” value [25] was 260 mmHg and 210 mmHg, the “Response Change (single rat)” value [25] was 45 mmHg and 30 mmHg and the “% Inhibition” value [26] was 9%. The “Average Change” value [26] was 38.5 mmHg, the “Control Before AII (single rat)” value [26] was 213 mmHg and 185 mmHg and the “Response After AII (single rat)” value [26] was 265 mmHg and 210 mmHg. The “Response Change (single rat)” value [26] was 52 mmHg and 25 mmHg.
